Test: in vitro
Conditions: human, hela cells

Structure (SMILES) | viability at 28.5 h, 10 µM [%]
COc1ccc(C(=O)Oc2ccc(C(c3c(C)n[nH]c3O)c3c(C)n[nH]c3O)cc2)cc1 [CBK264740] | 112

Same assay, conditions: human, hela cells, % viability

Structure (SMILES) | viability at 28.5 h, 10 µM [%]
COc1ccc(CC(=O)N2CCC(Cc3cccc(-c4cccs4)c3)(C(N)=O)CC2)cc1 [CBK285744] | 93.2
Cc1cc(C)n(C(CC(=O)c2ccccc2)C(=O)O)n1 (stereo not drawn) [CBK287209] | 90.8
Cc1cc(=O)oc2cc(NC(=S)NNC(=O)C(C)Sc3nc4ccccc4s3)ccc12 (stereo not drawn) [CBK267056] | 102
O=C(O)c1cccc2c1C(=O)N(Cc1cccnc1)C2 [CBK291193] | 119
CCN=C(S)NS(=O)(=O)c1ccc(C)cc1 [CBK288452] | 86.2
COc1ccc(-c2ccccc2)cc1NS(=O)(=O)c1ccc2c(c1)CCC(=O)N2 [CBK286368] | 100
CCOCCCNC(=O)C1CCN(c2cccc(F)c2C#N)CC1 [CBK306341] | 91.9
Cc1ccn(CCNC(=O)c2[nH]c3c(Cl)cccc3c2C)n1 [CBK282608] | 97.9
Nc1ncn(CC(O)CO)c2nc(N3CCOCC3)nc1-2 (stereo not drawn) [CBK009231] | 90.8
Cc1nccn1CCNC(=O)c1ccccc1Cn1cccn1 [CBK281979] | 101
O=C(N[C@H]1C[C@@H]2C(=O)N[C@H]3CCN(C(=O)Cc4cccs4)[C@@H]3C(=O)N2C1)C1CCC1 [CBK289269] | 117
O=C(c1nc2ccccc2[nH]1)N1CCC(F)CC1 [CBK200278] | 90.3
O=C(O)c1nccnc1-c1ccc(Cn2ccc3ccccc32)cc1 [CBK050811] | 100
COc1ccc(CN2C(=O)CO[C@H]3CN(c4nccc(C)n4)C[C@H]32)cc1 [CBK289056] | 86.1
Cc1sc2ncn(CC(=O)NCCc3c[nH]cn3)c(=O)c2c1C [CBK304685] | 99.3
O=C(c1ccccc1)c1ccc(S(=O)(=O)N2CCCN(Cc3cc(F)c(F)c(F)c3)CC2)cc1 [CBK062777] | 91.2
Cc1nc(C2CN(Cc3c(Cl)ccc4cccnc34)CCO2)no1 (stereo not drawn) [CBK305317] | 82
COCCN1CC2=C(C1=O)C(c1ccc(F)cc1)NC(=O)N2 (stereo not drawn) [CBK249447] | 81.9
CC(C)N(Cc1nc(-c2ccccc2)no1)C(=O)Nc1cccc(Cl)c1 [CBK269871] | 93.5
CCN(CC)CCN1CCN(c2cc(-c3ccc(SC)cc3)ncn2)CC1 [CBK091203] | 93.3
COc1ccc2nc(Nc3nc(C)c(C(C)=O)s3)sc2c1 [CBK287483] | 94.8
NC(=O)CSc1ccccc1 [CBK010649] | 91.2

Structure (SMILES) | viability at 28.5 h, 10 µM [%]
Cc1noc(C)c1S(=O)(=O)NCCc1c[nH]c2ccccc12 [CBK067311] | 101
COc1ccc(-c2csc(Nc3cccc(C(=O)O)c3)n2)cc1 [CBK286924] | 86.7
O=c1c(-c2ccco2)[n+]([O-])c2ccccc2n1OCc1ccccn1 [CBK266570] | 91.8
O=C(O)CCCC(=O)Nc1ccccc1-c1ccccc1 [CBK231405] | 94.9
COc1cccc(CN2CCC(Cc3ccccc3-c3ccc(C)cc3C)(C(=O)O)CC2)c1 [CBK286420] | 95.5
CC(Sc1ccc(S(=O)(=O)N2CCN(C)CC2)cn1)C(=O)Nc1ccc(C(C)(C)C)cc1 (stereo not drawn) [CBK297551] | 106
Cc1nn(-c2ccccn2)c(C)c1[C@@H]1C=C[C@@H](NC(=O)NC(C)C)C1 [CBK289168] | 91.4
CC(=O)Nc1ccccc1NC(=O)C(C)Oc1ccc(Cl)cc1Cl (stereo not drawn) [CBK263954] | 96.8
CSc1nnnn1-c1cccc(NC(=O)N2CCCN(C)CC2)c1 [CBK304180] | 78.1
CC(C)CNS(=O)(=O)c1ccc(N2CCCC2=O)cc1 [CBK304981] | 106
O=c1[nH]c2cc(NCCO)c([N+](=O)[O-])cc2[nH]1 [CBK009794] | 93.2
c1cncc(-c2nccnc2NCC2CC2)c1 [CBK037310] | 80.9
CN1C(=O)COc2ccccc2C/C=C/C[C@H]2CN(C(=O)C3CCC3)CC[C@H]21 [CBK292087] | 95.1
O=C(CCCOc1ccc(Cl)cc1Cl)Nc1c[nH]c(=O)[nH]c1=O [CBK264235] | 113
O=C(c1csc(-c2ccncc2)n1)N1CCN(c2ccccc2)CC1 [CBK288590] | 110
NC(=O)c1nnc2ccc(Cl)cc2c1N [CBK026161] | 89.9
N#Cc1ccccc1C(=O)N(CCO)Cc1ccccc1 [CBK304844] | 89.8
c1ccc(Oc2cccc(CN3CCOCC3)c2)cc1 [CBK261870] | 95.3
Cc1csc(NC(=O)CN2CCC(c3ccc(F)cc3)CC2)n1 [CBK283567] | 94.2
CC(C#N)(NC(=O)COc1ncnc2sc3c(c12)CCC3)C1CC1 (stereo not drawn) [CBK306333] | 88.1
O=C1NN(c2ccc(Br)cc2)C(=O)/C1=C\c1ccc(-c2ccc3c(c2)C(=O)NC3=O)o1 [CBK262968] | 111
O=[N+]([O-])c1ccc(N2CCN(S(=O)(=O)c3ccc4ccccc4c3)CC2)cc1NC1CC1 [CBK264361] | 111

Structure (SMILES) | viability at 28.5 h, 10 µM [%]
O=C(COc1cccnc1)N[C@H]1C2CCCCC2[C@@H]1c1ccccc1 (stereo partly drawn) [CBK282951] | 100
O=C1C=C(c2ccc([N+](=O)[O-])cc2)Nc2nonc2N1 [CBK261487] | 89.4
CCN(CC)Cc1c(O)ccc2occ(C(=O)c3cc(OC)ccc3OC)c12 [CBK261949] | 97
CCC(Oc1nc2ccccc2nc1-c1ccccc1NC(C)=O)C(=O)c1ccccc1 (stereo not drawn) [CBK267315] | 94.4
Cc1ccc(-c2n[nH]c(=S)n2CC(=O)N2CCC(C(=O)Nc3ccc4c(c3)OCO4)CC2)cc1 [CBK297887] | 82
CCNC(=O)C1(Cc2ccccc2-c2ccncc2)CCOCC1 [CBK285216] | 100
COc1ccc([C@@]23CC[C@@H](NC(=O)Nc4ccon4)C[C@@H]2N(C)CC3)cc1OC [CBK051069T] | 97
CCOc1ccc(CC(=O)NC[C@H]2CC[C@H](c3cc(C(N)=O)c4ccccc4n3)CC2)cc1 [CBK285899] | 92.2
Nc1cc(-c2ccco2)nn(Cc2c(Cl)cccc2Cl)c1=O [CBK282880] | 112
COc1cc(OC)c(NC(=O)C(C)Oc2ccc(Br)cc2)cc1Cl (stereo not drawn) [CBK266791] | 97
Cn1/c(=N\C(=O)c2cccs2)sc2cc(Br)ccc21 [CBK018873] | 102
O=C(COCc1nc2ccccc2[nH]1)N1CCC(c2ccccc2)C1 (stereo not drawn) [CBK281840] | 97.7
Cc1cc(CN(C)Cc2c(C)nc3ccc(Cl)cn23)n[nH]1 [CBK281913] | 108
CCC(C)c1cc([N+](=O)[O-])cc([N+](=O)[O-])c1OC(=O)OC(C)C (stereo not drawn) [CBK260882] | 99.2
COc1ccc(C(=O)CC(SCC(NC(C)=O)C(=O)O)c2ccc(Cl)cc2)cc1OC (stereo not drawn) [CBK296109] | 88.4
Fc1ccc(C2C=C(c3ccc(F)cc3F)Nc3ncnn32)cc1 (stereo not drawn) [CBK288095] | 99.7
CS(=O)(=O)c1ccc(-c2ccc3c(c2)C(=O)NC(C2CCN(C(=O)OCc4ccccc4)CC2)O3)cc1 (stereo not drawn) [CBK156087] | 98.1
CCc1ccccc1NC(=O)Cc1ccc(OC)cc1 [CBK087898] | 85.7
Cc1c(NC(=O)CSc2ccc(Cl)cc2)cccc1-c1nc2ncccc2o1 [CBK268829] | 109
COc1ccc(CCN2CNc3c(c(=O)n(C)c(=O)n3C)C2)cc1OC [CBK074818] | 86
Cn1nnc(NC(=O)COc2ccc(C3CCCCC3)cc2)n1 [CBK266442] | 95.9
CC(=O)N[C@H]1CC[C@]2(C)CCC([C@H](C)C(=O)NC3CCCC3)[C@H](O)[C@H]2[C@@H]1C (stereo partly drawn) [CBK289436] | 79.6

Structure (SMILES) | viability at 28.5 h, 10 µM [%]
Nc1nc2cccnc2cc1-c1ccsc1 [CBK081214] | 85.8
O=S(=O)(c1ccc(-c2cncc(-c3ccc(O)cc3)n2)cc1)N1CCOCC1 [CBK123786] | 84.6
Cc1csc(C(Cc2cccs2)NC(=O)CN2CCCC2=O)n1 (stereo not drawn) [CBK284691] | 109
O=[N+]([O-])c1ccccc1S(=O)(=O)Nc1ccc(S(=O)(=O)Nc2ncccn2)cc1 [CBK264768] | 109
c1ccc(-c2cn3ccnc3c(NCC3CCOCC3)n2)cc1 [CBK037356] | 99.1
CCN(CC)C(=O)C1CCCN(C(=O)Nc2ccc3[nH]ccc3c2)C1 (stereo not drawn) [CBK156133] | 98
NC(=O)COc1ccc(CNc2ccc(Oc3ccccc3)cc2)cc1Cl [CBK269584] | 89.4
CNC(=O)c1ccc(-c2cnc(NCC3CCN(C(=O)OC(C)(C)C)CC3)cn2)cc1 [CBK173726] | 111
CCN(CC)C(=O)CCCc1[nH]nc(O)c1Cc1c(Cl)cccc1Cl [CBK081524] | 89
O=S(=O)(Nc1ccc(C(O)(C(F)(F)F)C(F)(F)F)cc1)c1ccc(Cl)c(Cl)c1 [CBK062102] | 111
COc1ccc(C2(C(=O)NCCc3c[nH]cn3)CC2)cc1 [CBK149834] | 97.8
N#Cc1cnccc1N1CC2COCCC2(C(=O)N2CCCC2)C1 (stereo not drawn) [CBK304731] | 83
COc1cccc(C2CC(=O)Nc3c2c(=O)nc(SC)n3C)c1 (stereo not drawn) [CBK307546] | 104
CC(C)CNC(=O)N1CCN(Cc2ccccc2)CC1 [CBK155644] | 110
Cc1nnnn1-c1cc(NC(=O)NCCN2CCOCC2)ccc1F [CBK306246] | 89.2
CC(C)(C)C(=O)Nc1ccc(Cc2ccc(NC(=O)C(C)(C)C)c(C(=O)O)c2)cc1C(=O)O [CBK261393] | 104
CC(=O)NCCSc1ncccc1C(F)(F)F [CBK105296] | 101
CCCCN(C)C(=O)Cn1nc(C)c2ccccc2c1=O [CBK305050] | 81.4
COCCN1C(=O)C2(CC(=O)N(CC3CCCCC3)C2=O)c2ccccc21 (stereo not drawn) [CBK075355] | 97.8

Same assay, conditions: human, hela cells, % viability, bulk resorufin, single well

Structure (SMILES) | viability at 28.5 h, 10 µM [%]
c1cc2c(cc1CCNCc1ccc3c(c1)OCO3)OCO2 [CBK074501G] | 98.9

From article PMC12040169 (PLOS Biology, 2025)
